According to publication PMC9858427, “Design, synthesis and biological evaluation of 2-((4-sulfamoylphenyl)amino)-pyrrolo[2,3-d]pyrimidine derivatives as CDK inhibitors” (Journal of Enzyme Inhibition and Medicinal Chemistry, 2023):

Tests used:
MIA PaCa-2 cells [1] = test: MTT proliferation assay in MIA PaCa-2 cells; format: cell-based, human; conditions: Homo sapiens, MIA PaCa-2, 72 h, 72 h drug exposure
Procedure: (§1) The human pancreatic carcinoma MIA PaCa-2 was purchased from China Centre for Type Culture Collection, AsPC-1 and BxPC-3 cell Lines were purchased from Cell Centre of the Institute of Basic Medical Sciences, Chinese Academy of Medical Sciences and Peking Union Medical College. PANC-1 was kindly provided by Nankai Hospital (Tianjin, China). These cancer cell lines were cultured according to the manufacturer’s instruction.
(§2) Then 3-fold diluted concentrations of tested compound were added respectively which was dissolved by DMSO in the ratio of 1:1000. After indicated incubation period, MTT was added to each well and incubated for 4 h at 37 °C. Then, the supernatant was discarded gently, and the precipitate was dissolved in 100 µL of DMSO in each well. The absorbance (A) at 570 nm was detected with a microplate reader (Multiskan MK3; Thermo Fisher Scientific, MA, USA). Vehicle-treated cells were served as the control for the calculation of relative cell viability (%) of treated group at single concentration. IC50 value was calculated directly from the inhibition curve of serial dilution of test compound and was expressed as mean ± SD using the SPSS statistical software (SPSS17.0 Inc., Chicago, IL, USA).

AsPC-1 = test: MTT proliferation assay in AsPC-1 cells; format: cell-based; conditions: Homo sapiens, ASPC1; 72 h drug exposure
Procedure: as §1
as §2, with “Cells were planted in 96-well plates at a density of 3000–4000 cells per well and incubated at 37 °C in a humidified CO2 incubator for 24 h. Then 3-fold” for “Then 3-fold”

BxPC-3 = test: MTT proliferation assay in BxPC-3 cells; format: cell-based; conditions: Homo sapiens, 72 h drug exposure
Procedure: as §1
as §2, with “Cells were planted in 96-well plates at a density of 3000–4000 cells per well and incubated at 37 °C in a humidified CO2 incubator for 24 h. Then 3-fold” for “Then 3-fold”

PANC-1 = test: MTT proliferation assay in PANC-1 cells; format: cell-based; conditions: Homo sapiens, 72 h drug exposure
Procedure: as §1
as §2, with “Cells were planted in 96-well plates at a density of 3000–4000 cells per well and incubated at 37 °C in a humidified CO2 incubator for 24 h. Then 3-fold” for “Then 3-fold”

[2] = tested on: AsPC-1 cell-derived xenograft; test: AsPC-1 cell-derived xenograft mice model, in vivo efficacy; set-up: species or system BALB/C nude mice; conditions: GCTB 50 mg/kg intraperitoneal once a week, 3 weeks; vs vehicle group
Procedure: Synthetic compound was administered as a suspension or solution in the saline with 5% DMSO and 5% Solutol. GCTB was dissolved in saline. All of the experiments were approved by the Institutional Animal Care and Use Committee of Institute of Medicinal Biotechnology. All experiments were carried out under ethics committee–approved protocols and in compliance with the guidelines for the care of laboratory animals of Institute of Medicinal Biotechnology, CAMS.
AsPC-1 (5 × 10^7) cells were injected subcutaneously into 5-week-old female BALB/C nude mice (Beijing Huafukang Bioscience CO. Inc, Beijing, China). After two weeks, mice were omogenizamised and treated with vehicle, gemcitabine (GCTB), or test compound. Blank solvent and test compound was administered by oral gavage (10 ml/kg) with once daily of five days and followed by 2 days off in each week, GCTB was given once a week by 50 mg/kg intraperitoneal injection. Mice were inspected daily for clinical signs, both tumour diameters and body weight were determined 3 times weekly. Tumour volumes were calculated according to the formula “tumor volume (V) = length × width^2/2”. Median TGI values were calculated as follows: TGI = 100 × [1-(Vtreated group at day20-Vtreated group at day1)/(Vvehicle group at day20-Vvehicle group at day1)]. Data were plotted as average with SD in the graphical representation of tumour growth. The p values obtained from the two-way ANOVA analysis. Meanwhile, main organs of mice were collected, formalin-fixed and paraffin-embedded for pathological analysis by H&E dyeing. For drug concentration determination, blood and tumour tissues were collected at indicated time after single administration. Standard curve of test compound was established in the acquisition mode of SIM using a SHIMADZU LC-MS instrument. […] After centrifugation at 10 × 10^3 for 5 min, the supernatant was injected directedly into LC-MS instrument for quantification of drug concentration. […] After centrifugation under same condition as plasma samples, supernatant was separated and injected into LC-MS for quantification.

[3] = Body weight and H&E pathology of main organs in xenograft mice; format: in vivo, BALB/C nude mice; conditions: after 3-week treatment
Procedure: AsPC-1 (5 × 10^7) cells were injected subcutaneously into 5-week-old female BALB/C nude mice (Beijing Huafukang Bioscience CO. Inc, Beijing, China). After two weeks, mice were omogenizamised and treated with vehicle, gemcitabine (GCTB), or test compound. Blank solvent and test compound was administered by oral gavage (10 ml/kg) with once daily of five days and followed by 2 days off in each week, GCTB was given once a week by 50 mg/kg intraperitoneal injection. Mice were inspected daily for clinical signs, both tumour diameters and body weight were determined 3 times weekly. Tumour volumes were calculated according to the formula “tumor volume (V) = length × width^2/2”. Median TGI values were calculated as follows: TGI = 100 × [1-(Vtreated group at day20-Vtreated group at day1)/(Vvehicle group at day20-Vvehicle group at day1)]. Data were plotted as average with SD in the graphical representation of tumour growth. The p values obtained from the two-way ANOVA analysis. Meanwhile, main organs of mice were collected, formalin-fixed and paraffin-embedded for pathological analysis by H&E dyeing. For drug concentration determination, blood and tumour tissues were collected at indicated time after single administration. Standard curve of test compound was established in the acquisition mode of SIM using a SHIMADZU LC-MS instrument. Blood kept in anticoagulant tube coated with heparin sodium was centrifuged to provide the supernatant, which was followed by added with 3-fold acetonitrile to precipitate plasma protein. After centrifugation at 10 × 10^3 for 5 min, the supernatant was injected directedly into LC-MS instrument for quantification of drug concentration. As for tumour tissues, omogenizationation (Precellys Evolution) was done after weighed accurately and added with 3-fold saline. After centrifugation under same condition as plasma samples, supernatant was separated and injected into LC-MS for quantification.

CDK9/cyclinT1 = CDK9/cyclinT1 (Homo sapiens, UniProt P50750); test: CDK9/cyclinT1 Lance Ultra Assay, single concentration screen; format: biochemical; conditions: 50 nM, ATP concentration at Km, read-out: CDK9 inhibitory rate (%) @ 50nM
CDK9/cyclinT1, sequence (P50750 whole entry): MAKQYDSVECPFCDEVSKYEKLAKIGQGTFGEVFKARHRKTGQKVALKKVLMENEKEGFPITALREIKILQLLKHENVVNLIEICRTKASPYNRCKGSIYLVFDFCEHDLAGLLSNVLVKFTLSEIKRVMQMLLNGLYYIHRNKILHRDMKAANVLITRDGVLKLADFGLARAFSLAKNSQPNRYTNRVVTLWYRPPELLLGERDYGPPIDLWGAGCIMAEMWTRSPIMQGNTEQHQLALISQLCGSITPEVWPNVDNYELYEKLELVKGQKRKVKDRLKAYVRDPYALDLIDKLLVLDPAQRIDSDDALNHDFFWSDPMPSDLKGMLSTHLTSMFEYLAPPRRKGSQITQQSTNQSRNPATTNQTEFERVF
CDK9/cyclinT1, sequence (O60563 whole entry partner): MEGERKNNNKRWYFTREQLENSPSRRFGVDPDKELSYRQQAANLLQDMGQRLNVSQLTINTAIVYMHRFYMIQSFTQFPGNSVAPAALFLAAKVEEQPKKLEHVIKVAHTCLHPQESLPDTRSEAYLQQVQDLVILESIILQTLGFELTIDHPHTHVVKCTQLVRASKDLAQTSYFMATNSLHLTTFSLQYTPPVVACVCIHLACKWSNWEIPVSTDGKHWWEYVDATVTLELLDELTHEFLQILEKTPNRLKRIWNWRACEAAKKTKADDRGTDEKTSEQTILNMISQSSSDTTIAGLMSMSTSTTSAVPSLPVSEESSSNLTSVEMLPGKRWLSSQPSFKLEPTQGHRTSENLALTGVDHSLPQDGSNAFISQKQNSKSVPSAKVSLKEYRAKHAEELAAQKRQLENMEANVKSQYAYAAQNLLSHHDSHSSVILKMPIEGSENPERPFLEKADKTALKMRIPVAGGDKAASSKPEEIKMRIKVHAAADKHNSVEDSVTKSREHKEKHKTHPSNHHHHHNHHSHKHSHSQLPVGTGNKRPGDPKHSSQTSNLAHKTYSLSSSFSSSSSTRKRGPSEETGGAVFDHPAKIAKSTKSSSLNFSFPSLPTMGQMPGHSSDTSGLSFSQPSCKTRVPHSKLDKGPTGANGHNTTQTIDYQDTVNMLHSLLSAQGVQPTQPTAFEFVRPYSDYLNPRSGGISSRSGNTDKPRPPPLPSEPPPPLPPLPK
Procedure: (§3) CDK kinase activity (IC50 values and inhibitory rate at single concentration) was measured using the kinase profiling services (Shanghai ChemPartner Co., Ltd). Compounds were sent to ChemPartner as a solution in DMSO at concentration of 10 mM.

CDK1 [4] = biological target: T1, CDK1 (Homo sapiens, UniProt P06493); test: CDK1 kinase IC50, Mobility shift assay; format: biochemical
T1 sequence (P06493 whole entry): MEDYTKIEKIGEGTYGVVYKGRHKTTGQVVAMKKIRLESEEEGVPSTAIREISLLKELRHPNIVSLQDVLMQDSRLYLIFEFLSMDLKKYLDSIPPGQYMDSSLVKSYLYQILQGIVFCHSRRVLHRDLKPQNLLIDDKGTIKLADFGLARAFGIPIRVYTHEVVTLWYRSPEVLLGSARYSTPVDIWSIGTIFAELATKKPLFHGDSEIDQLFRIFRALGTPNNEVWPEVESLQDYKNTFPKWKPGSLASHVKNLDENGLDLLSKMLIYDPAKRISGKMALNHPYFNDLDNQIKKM
T1 sequence (P14635 whole entry partner): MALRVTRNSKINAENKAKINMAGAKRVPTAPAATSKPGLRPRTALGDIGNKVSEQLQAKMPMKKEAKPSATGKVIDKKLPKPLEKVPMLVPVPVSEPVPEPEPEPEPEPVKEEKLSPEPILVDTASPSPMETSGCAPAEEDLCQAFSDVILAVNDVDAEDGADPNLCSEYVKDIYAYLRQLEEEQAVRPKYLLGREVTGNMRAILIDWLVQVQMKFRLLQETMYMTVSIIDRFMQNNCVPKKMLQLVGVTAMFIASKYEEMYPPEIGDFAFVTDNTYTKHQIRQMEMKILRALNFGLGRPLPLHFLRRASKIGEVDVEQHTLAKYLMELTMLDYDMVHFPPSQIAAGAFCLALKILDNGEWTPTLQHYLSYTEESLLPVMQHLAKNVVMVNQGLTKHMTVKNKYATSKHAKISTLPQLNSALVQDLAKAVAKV
Procedure: as §3

CDK2 [5] = biological target: T2, CDK2 (Homo sapiens, UniProt P24941); test: CDK2 kinase IC50, Mobility shift assay; format: biochemical
Procedure: as §3

CDK4 [6] = biological target: T3, CDK4 (Homo sapiens, UniProt P11802); test: CDK4 kinase IC50, Mobility shift assay; format: biochemical
T3 sequence (P11802 whole entry): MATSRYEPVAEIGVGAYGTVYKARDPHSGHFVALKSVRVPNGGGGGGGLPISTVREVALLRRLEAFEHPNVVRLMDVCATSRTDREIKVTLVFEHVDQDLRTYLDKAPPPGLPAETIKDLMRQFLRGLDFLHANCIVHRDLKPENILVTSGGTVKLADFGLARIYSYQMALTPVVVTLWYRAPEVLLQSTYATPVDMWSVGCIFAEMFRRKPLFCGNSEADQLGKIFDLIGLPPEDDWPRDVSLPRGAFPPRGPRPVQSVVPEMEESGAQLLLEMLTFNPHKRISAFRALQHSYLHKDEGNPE
T3 sequence (P30281 whole entry partner): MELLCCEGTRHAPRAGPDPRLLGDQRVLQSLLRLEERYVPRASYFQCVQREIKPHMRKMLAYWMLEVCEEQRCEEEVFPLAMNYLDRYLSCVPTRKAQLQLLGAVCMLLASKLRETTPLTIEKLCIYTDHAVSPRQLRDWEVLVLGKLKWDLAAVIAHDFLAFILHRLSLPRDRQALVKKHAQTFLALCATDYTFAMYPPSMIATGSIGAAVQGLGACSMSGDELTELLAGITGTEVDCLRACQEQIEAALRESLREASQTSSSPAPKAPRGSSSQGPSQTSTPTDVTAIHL
Procedure: as §3

CDK7 [7] = biological target: T4, CDK7 (Homo sapiens, UniProt P50613); test: CDK7 kinase IC50, Mobility shift assay; format: biochemical
T4 sequence (P50613 whole entry): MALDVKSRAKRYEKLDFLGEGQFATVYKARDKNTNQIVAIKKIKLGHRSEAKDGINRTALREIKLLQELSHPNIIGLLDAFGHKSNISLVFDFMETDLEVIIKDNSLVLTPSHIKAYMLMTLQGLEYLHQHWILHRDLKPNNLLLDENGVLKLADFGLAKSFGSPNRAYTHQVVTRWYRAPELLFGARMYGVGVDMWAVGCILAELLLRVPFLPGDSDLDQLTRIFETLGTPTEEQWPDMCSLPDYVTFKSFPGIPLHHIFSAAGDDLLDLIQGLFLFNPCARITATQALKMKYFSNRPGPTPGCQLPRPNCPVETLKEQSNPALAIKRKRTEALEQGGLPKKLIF
T4 sequence (P51946 whole entry partner): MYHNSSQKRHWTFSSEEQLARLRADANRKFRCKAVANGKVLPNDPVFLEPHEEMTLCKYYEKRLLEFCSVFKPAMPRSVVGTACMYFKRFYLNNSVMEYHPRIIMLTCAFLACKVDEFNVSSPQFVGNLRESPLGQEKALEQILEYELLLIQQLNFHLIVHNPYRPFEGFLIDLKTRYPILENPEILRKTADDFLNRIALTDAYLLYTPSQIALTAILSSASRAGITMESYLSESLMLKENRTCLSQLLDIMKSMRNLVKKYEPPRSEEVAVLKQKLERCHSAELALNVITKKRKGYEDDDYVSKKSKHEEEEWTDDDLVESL
T4 sequence (P51948 whole entry partner): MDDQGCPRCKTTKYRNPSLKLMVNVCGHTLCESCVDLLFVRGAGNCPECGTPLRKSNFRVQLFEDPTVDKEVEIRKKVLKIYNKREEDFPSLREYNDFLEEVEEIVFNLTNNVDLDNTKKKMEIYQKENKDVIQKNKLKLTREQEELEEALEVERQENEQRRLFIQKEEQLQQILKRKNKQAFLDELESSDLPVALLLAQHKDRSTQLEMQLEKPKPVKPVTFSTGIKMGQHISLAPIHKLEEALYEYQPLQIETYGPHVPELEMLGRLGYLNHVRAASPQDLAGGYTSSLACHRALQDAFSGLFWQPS
Procedure: as §3

CDK9 [8] = biological target: T5, CDK9 (Homo sapiens, UniProt P50750); test: CDK9 kinase IC50, Mobility shift assay; format: biochemical
T5 sequence (P50750 whole entry): as the sequence (P50750 whole entry) above
T5 sequence (O60563 whole entry partner): as the sequence (O60563 whole entry partner) above
Procedure: as §3

CDK1 [9] = biological target: T1, CDK1; test: CDK kinase screening at 1 μM, CDK1; format: biochemical; conditions: read-out: Inhibitory rate at 1μM: CDK1
Procedure: as §3

CDK2 [10] = biological target: T2, CDK2; test: CDK kinase screening at 1 μM, CDK2; format: biochemical; conditions: read-out: Inhibitory rate at 1μM: CDK2
Procedure: as §3

CDK3 = CDK3 (Homo sapiens, UniProt Q00526); test: CDK kinase screening at 1 μM, CDK3; format: biochemical; conditions: read-out: Inhibitory rate at 1μM: CDK3
Procedure: as §3

CDK4 [11] = biological target: T3, CDK4; test: CDK kinase screening at 1 μM, CDK4; format: biochemical; conditions: read-out: Inhibitory rate at 1μM: CDK4
Procedure: as §3

CDK5 = CDK5 (Homo sapiens, UniProt Q00535); test: CDK kinase screening at 1 μM, CDK5; format: biochemical; conditions: read-out: Inhibitory rate at 1μM: CDK5
CDK5, sequence (Q00535 whole entry): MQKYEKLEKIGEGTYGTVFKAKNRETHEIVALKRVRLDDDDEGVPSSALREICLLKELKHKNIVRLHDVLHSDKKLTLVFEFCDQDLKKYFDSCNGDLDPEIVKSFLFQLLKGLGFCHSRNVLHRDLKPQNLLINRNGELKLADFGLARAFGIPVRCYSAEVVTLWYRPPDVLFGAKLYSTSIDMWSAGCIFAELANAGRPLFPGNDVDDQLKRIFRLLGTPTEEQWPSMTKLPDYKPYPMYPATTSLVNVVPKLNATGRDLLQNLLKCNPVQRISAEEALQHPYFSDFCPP
CDK5, sequence (Q15078 99-307 partner limits assumed): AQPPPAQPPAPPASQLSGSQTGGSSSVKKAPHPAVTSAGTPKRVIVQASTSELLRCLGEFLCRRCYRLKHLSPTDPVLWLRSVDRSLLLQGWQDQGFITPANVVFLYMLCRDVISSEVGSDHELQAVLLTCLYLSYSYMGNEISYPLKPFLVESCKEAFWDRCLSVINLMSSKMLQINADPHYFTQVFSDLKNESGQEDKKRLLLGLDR
Procedure: as §3

CDK6 = CDK6 (Homo sapiens, UniProt Q00534); test: CDK kinase screening at 1 μM, CDK6; format: biochemical; conditions: read-out: Inhibitory rate at 1μM: CDK6
CDK6, sequence (Q00534 whole entry): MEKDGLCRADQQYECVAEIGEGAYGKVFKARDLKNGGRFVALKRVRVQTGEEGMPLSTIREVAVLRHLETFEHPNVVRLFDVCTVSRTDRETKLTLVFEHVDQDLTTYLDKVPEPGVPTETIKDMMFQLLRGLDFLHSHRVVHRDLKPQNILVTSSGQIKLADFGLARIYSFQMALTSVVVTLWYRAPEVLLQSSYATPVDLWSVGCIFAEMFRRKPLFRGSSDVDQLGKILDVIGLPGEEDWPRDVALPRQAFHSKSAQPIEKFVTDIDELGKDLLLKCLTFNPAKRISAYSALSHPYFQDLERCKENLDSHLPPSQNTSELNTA
CDK6, sequence (P30281 whole entry partner): as the sequence (P30281 whole entry partner) above
Procedure: as §3

CDK7 [12] = biological target: T4, CDK7; test: CDK kinase screening at 1 μM, CDK7; format: biochemical; conditions: read-out: Inhibitory rate at 1μM: CDK7
Procedure: as §3

CDK8 = CDK8 (Homo sapiens, UniProt P49336); test: CDK kinase screening at 1 μM, CDK8; format: biochemical; conditions: read-out: Inhibitory rate at 1μM: CDK8
Procedure: as §3

CDK9 [13] = biological target: T5, CDK9; test: CDK kinase screening at 1 μM, CDK9; format: biochemical; conditions: read-out: Inhibitory rate at 1μM: CDK9
Procedure: as §3

MIA PaCa-2 cells [14] = tested on: MIA PaCa-2 cells; set-up: method as in PMID 33316409; conditions: previous study ref 23; cited from earlier work

SMILES: Nc1ccn([C@@H]2O[C@H](CO)[C@@H](O)C2(F)F)c(=O)n1 [GCTB, gemcitabine, reference compound]
- IC50 (MIA PaCa-2 cells [1]): 1.04 ± 0.27 µM
- IC50 (AsPC-1): 0.956 ± 0.14 µM
- IC50 (BxPC-3): 0.388 ± 0.119 µM
- IC50 (PANC-1): 5.79 ± 4.21 µM
- tumour growth inhibition (TGI) [2]: 36%
- pathological change in main organs (H&E) [3]: no obvious pathological change

SMILES: Cc1cc(C)nc(NS(=O)(=O)c2ccc(Nc3ncc4cc(C(=O)N(C)C)n(C5CCCC5)c4n3)cc2)n1 [compound 1]
- IC50 (MIA PaCa-2 cells [1]): 4.98 ± 2.68 µM
- IC50 (AsPC-1): 2.6 ± 0.997 µM
- IC50 (BxPC-3): 0.409 ± 0.06 µM
- IC50 (PANC-1): 3.68 ± 2.5 µM
- inhibition at 0.05 µM (CDK9/cyclinT1): 98.6%
- IC50 (CDK1 [4]): 516 nM
- IC50 (CDK2 [5]): 91.6 nM
- IC50 (CDK4 [6]): 89 nM
- IC50 (CDK7 [7]): > 10000 nM
- IC50 (CDK9 [8]): 5.6 nM
- inhibition at 1 µM (CDK1 [9]): 65.2%
- inhibition at 1 µM (CDK2 [10]): 94.4%
- inhibition at 1 µM (CDK3): 84.5%
- inhibition at 1 µM (CDK4 [11]): 89.2%
- inhibition at 1 µM (CDK5): 72.1%
- inhibition at 1 µM (CDK6): 78.1%
- inhibition at 1 µM (CDK7 [12]): 5.3%
- inhibition at 1 µM (CDK8): 0.8%
- inhibition at 1 µM (CDK9 [13]): 99%
- effect on cell cycle (MIA PaCa-2 cells [14]): G2-arrested effect
